From ChEMBL document CHEMBL1135277, “Beta-carbolines as specific inhibitors of cyclin-dependent kinases” (Bioorg Med Chem Lett, 2002) come the findings set out here.

Test [1] addresses Cyclin-dependent kinase 2 (Homo sapiens) (UniProt P24941). The test can be described thus: Percentage inhibition against cyclin dependent kinase 2 (CDK 2) at a concentration of 50 uM.
Test [2] deals with Cyclin-dependent kinase 2/cyclin A (Homo sapiens, UniProt P24941). Nature of the test: Inhibition of Cyclin-dependent kinase 2-cyclin A. The class given is protein-complex assay.
Test [3] addresses Protein kinase C (PKC). The test can be described thus: Inhibition of protein kinase C. The class given is protein assay.
A short description of test [4]: Inhibition of Mitogen-activated protein kinase.
Test [5] deals with Tyrosine-protein kinase Fyn (Homo sapiens, UniProt P06241). Nature of the test: Inhibition of Fyn kinase.
Test [6] addresses Tyrosine-protein kinase Lyn (Homo sapiens, UniProt P07948). Nature of the test: Inhibition of Lyn tyrosine kinase.
For test [7], the target named is Cyclin-dependent kinase 1/cyclin B (Homo sapiens, UniProt P06493). Nature of the test: Inhibition of Cell division cycle 2 (CDK1)-cyclin B. The class given is protein-complex assay.
The target in test [8] is Tyrosine-protein kinase Lck (Homo sapiens, UniProt P06239). The test can be described thus: Inhibition of p56 Lck tyrosine kinase.
Test [9] addresses Cyclin-dependent kinase 5/CDK5 activator 1 (Homo sapiens, UniProt Q00535). Nature of the test: Inhibition of Cyclin-dependent kinase 5-p35nck5a. The class given is protein-complex assay.

Chain of Tyrosine-protein kinase Fyn (P06241 whole entry): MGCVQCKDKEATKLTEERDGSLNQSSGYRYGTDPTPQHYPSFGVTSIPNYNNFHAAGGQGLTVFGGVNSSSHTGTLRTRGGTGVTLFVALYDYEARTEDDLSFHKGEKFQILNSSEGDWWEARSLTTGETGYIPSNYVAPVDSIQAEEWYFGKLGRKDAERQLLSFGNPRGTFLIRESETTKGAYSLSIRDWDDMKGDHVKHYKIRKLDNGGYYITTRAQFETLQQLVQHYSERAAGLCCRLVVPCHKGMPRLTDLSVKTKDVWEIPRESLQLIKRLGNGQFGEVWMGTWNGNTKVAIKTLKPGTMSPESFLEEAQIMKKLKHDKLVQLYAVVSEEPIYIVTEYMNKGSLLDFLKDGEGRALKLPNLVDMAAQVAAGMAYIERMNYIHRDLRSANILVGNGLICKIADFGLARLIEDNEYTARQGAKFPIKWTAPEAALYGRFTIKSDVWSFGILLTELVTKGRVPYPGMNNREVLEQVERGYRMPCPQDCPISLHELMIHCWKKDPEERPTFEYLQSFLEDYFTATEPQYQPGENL
Chain of Tyrosine-protein kinase Lyn (P07948 whole entry): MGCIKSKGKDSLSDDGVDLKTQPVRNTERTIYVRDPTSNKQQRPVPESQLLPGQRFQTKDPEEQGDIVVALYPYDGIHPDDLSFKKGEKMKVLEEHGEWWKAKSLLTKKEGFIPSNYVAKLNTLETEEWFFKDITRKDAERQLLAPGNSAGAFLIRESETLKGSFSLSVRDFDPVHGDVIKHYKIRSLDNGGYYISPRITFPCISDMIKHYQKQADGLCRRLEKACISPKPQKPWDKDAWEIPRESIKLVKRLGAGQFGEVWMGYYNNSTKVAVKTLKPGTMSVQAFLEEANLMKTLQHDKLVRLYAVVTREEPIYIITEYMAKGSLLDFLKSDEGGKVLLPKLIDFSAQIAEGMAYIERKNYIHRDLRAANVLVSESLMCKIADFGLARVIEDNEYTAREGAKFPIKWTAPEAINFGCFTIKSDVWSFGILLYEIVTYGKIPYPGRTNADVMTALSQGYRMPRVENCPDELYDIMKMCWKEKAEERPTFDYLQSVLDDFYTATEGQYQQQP
Chain of Tyrosine-protein kinase Lck (P06239 whole entry): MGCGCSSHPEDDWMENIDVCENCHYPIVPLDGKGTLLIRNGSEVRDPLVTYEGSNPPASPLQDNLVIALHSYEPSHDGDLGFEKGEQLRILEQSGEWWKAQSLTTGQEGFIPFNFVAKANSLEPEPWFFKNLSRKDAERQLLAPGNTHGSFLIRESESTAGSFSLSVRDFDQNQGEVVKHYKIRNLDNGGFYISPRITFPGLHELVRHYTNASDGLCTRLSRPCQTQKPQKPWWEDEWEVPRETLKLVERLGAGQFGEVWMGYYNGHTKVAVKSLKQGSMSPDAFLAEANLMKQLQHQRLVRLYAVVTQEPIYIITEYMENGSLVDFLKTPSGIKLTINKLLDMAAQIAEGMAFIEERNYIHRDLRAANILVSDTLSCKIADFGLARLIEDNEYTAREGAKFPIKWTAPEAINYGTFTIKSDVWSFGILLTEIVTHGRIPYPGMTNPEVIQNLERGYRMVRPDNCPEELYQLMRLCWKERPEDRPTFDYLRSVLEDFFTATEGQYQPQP
Chain of Cyclin-dependent kinase 5/CDK5 activator 1 (Q00535 whole entry): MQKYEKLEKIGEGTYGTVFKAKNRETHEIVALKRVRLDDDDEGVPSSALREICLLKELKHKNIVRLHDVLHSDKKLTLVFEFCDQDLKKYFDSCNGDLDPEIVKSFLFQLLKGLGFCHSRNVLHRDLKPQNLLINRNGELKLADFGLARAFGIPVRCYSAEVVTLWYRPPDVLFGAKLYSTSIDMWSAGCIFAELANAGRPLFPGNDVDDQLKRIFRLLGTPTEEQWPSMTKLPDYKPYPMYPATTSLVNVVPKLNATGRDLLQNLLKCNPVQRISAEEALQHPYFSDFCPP
Chain of Cyclin-dependent kinase 5/CDK5 activator 1 (Q15078 whole entry, further chain): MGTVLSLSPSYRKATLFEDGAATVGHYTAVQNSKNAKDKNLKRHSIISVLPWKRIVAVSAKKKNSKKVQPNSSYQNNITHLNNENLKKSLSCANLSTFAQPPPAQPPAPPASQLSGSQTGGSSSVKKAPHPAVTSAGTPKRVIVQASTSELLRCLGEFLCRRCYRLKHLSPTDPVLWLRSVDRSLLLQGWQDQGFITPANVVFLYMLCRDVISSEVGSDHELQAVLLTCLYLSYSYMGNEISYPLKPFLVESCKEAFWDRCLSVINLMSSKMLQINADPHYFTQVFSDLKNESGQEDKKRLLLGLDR

A word on the inhibition: it is the share of the control response that was lost under treatment. Low values mean little suppression, high ones strong suppression. On to `c1ccc2c(c1)[nH]c1c(-c3c[nH]cn3)nccc12`, for which, in test [1], the inhibition stood at 30%.

In test [1], `Clc1ccc(-c2nccc3c2[nH]c2ccccc23)cc1` had an inhibition of 48%.

In the case of `Fc1ccc2c(c1)[nH]c1c(-c3ccccc3)nccc12`, the inhibition in test [1] turned out to be 57%.

On to `Cc1nccc2c1[nH]c1cc(OC(=O)NC3CCCCC3)ccc12`, for which, in test [1], the inhibition is 53%.

For the molecule `O=[N+]([O-])c1ccc(-c2[nH]ccc3c4ccccc4nc2-3)cc1`, the inhibition in test [1] came to 31%.

With `COc1ccc2c3c([nH]c2c1)C(C)=NCC3`, in test [1], the inhibition came out at 10%.

The molecule `CCOC(COc1ccc2c(c1)[nH]c1c(C)nccc12)OCC` yielded an inhibition in test [1] of 1%.

`Cc1[nH]cnc1-c1[nH]ccc2c3ccc(F)cc3nc1-2` returned an inhibition in test [1] of 51%.

On to `COC(=O)Cc1nccc2c1[nH]c1ccccc12`, for which, in [1], the inhibition was determined as 11%.

Consider `Cc1nccc2c1[nH]c1cc(OCCOC(=O)c3ccccc3)ccc12`, for which the inhibition in test [1] came to 13%.

For the molecule `Fc1ccccc1-c1[nH]ccc2c3ccccc3nc1-2`, in test [1], the inhibition turned out to be 64%.

In turn, `Cc1nccc2c1[nH]c1ccccc12` returned an inhibition in test [1] of 47%.

As for `N#Cc1ccc(-c2nccc3c2[nH]c2ccccc23)cc1`, the inhibition in test [1] was found to be 29%.

As for `O=[N+]([O-])c1ccc(-c2[nH]ccc3c4ccccc4nc2-3)cc1Cl`, the inhibition in [1] worked out at 4%.

As to `Brc1ccccc1-c1[nH]ccc2c3ccccc3nc1-2`, the inhibition in test [1] was found to be 10%.

In turn, `Fc1ccc(-c2nccc3c2[nH]c2ccccc23)cc1` displayed an inhibition in test [1] of 20%.

With `Cc1nccc2c1[nH]c1cc(OCCO)ccc12`, the inhibition in [1] was 4%.

Turning to `COc1ccc(-c2nccc3c2[nH]c2ccccc23)cc1`, the inhibition in test [1] was found to be 6%.

With `CCCCOc1ccc2c(c1)[nH]c1c(C)nccc12`, the inhibition in test [1] stood at 50%.

With `c1ccc(-c2nccc3c2[nH]c2ccccc23)cc1`, the inhibition in test [1] turned out to be 13%.

By IC50 is commonly meant the concentration at which inhibition is half-maximal. Lower therefore signals greater potency in that assay. Turning to `Cc1[nH]cnc1-c1nccc2c1[nH]c1ccccc12`, the IC50 is 6 µM in test [2]; greater than 250 µM in test [3]; greater than 250 µM in test [4]; greater than 250 µM in [5]; greater than 250 µM in test [6]; 25 µM in test [7]. The inhibition in [1] came out at 89%.

As to `Cc1nccc2c1[nH]c1cc(OCC(=O)OCc3ccccc3)ccc12`, the inhibition in test [1] worked out at 57%.

Take `CC(=O)OCCOc1ccc2c(c1)[nH]c1c(C)nccc12`: the inhibition in test [1] is 23%.

In turn, `COc1ccc2[nH]c3c(C)nccc3c2c1` came in with an inhibition in test [1] of 2%.

In [1], `Cc1nccc2c1[nH]c1cc(OCC(N)=O)ccc12` displayed an inhibition of 15%.

The molecule `COc1cccc(-c2[nH]ccc3c4ccccc4nc2-3)c1` displayed an inhibition in test [1] of 5%.

As for `c1ccc2c(c1)[nH]c1cnccc12`, the inhibition in test [1] turned out to be 37%.

`O=[N+]([O-])c1cccc(-c2[nH]ccc3c4ccccc4nc2-3)c1` registered an inhibition in test [1] of 19%.

Consider `Cc1ccc(-c2[nH]ccc3c4ccccc4nc2-3)c(C)c1`, for which the inhibition in test [1] came out at 5%.

In turn, `Cc1nccc2c1[nH]c1ccc(F)cc12` had an inhibition in test [1] of 46%.

In [1], `Cc1ccc2[nH]c3c(C)nccc3c2c1` came in with an inhibition of 15%.

Molecule `CCOc1ccc2c(c1)[nH]c1c(C)nccc12` came in with an inhibition in test [1] of 43%.

`Cc1nccc2c1[nH]c1cc(Oc3ncc(C(F)(F)F)cc3Cl)ccc12` displayed an inhibition in test [1] of 10%.

`Cc1ccc2c(c1)[nH]c1c(-c3ccccc3F)nccc12` displayed an inhibition in [1] of 36%.

In turn, `CCCc1ncc(N)c2c1[nH]c1ccccc12` registered an inhibition in [1] of 22%.

In the case of `Cc1nccc2c1[nH]c1ccc(OC(=O)c3ccccc3)cc12`, the inhibition in test [1] was determined as 2%.

Molecule `FC(F)(F)c1[nH]ccc2c3ccccc3nc1-2` yielded an inhibition in test [1] of 39%.

`CC1=NCCc2c1[nH]c1cc(O)ccc21` registered an inhibition in test [1] of 13%.

For the molecule `Clc1cccc(-c2nccc3c2[nH]c2ccccc23)c1`, in test [1], the inhibition is 32%.

In test [1], `CC(C)c1nccc2c1[nH]c1ccccc12` had an inhibition of 44%.

With `Cc1nccc2c1[nH]c1cc(OCCN3C(=O)c4ccccc4C3=O)ccc12`, in [1], the inhibition is 8%.

As to `CCCNC(=O)Oc1ccc2c(c1)[nH]c1c(C)nccc12`, the inhibition in [1] came out at 61%.

Regarding `O=[N+]([O-])c1ccccc1-c1[nH]ccc2c3ccccc3nc1-2`, in test [1], the inhibition is 43%.

In the case of `CCCc1nccc2c1[nH]c1ccccc12`, the inhibition in test [1] was 43%.

Regarding `COc1ccc2[nH]c3c(C(=O)O)nccc3c2c1`, the inhibition in [1] is 12%.

The molecule `CCc1nccc2c1[nH]c1cc(F)ccc12` gave an inhibition in [1] of 54%.

Regarding `Fc1ccc2c(c1)[nH]c1c(-c3ccccc3F)nccc12`, in test [1], the inhibition is 55%.

Turning to `Cc1nccc2c1[nH]c1cccc(C)c12`, in [1], the inhibition was determined as 30%.

`Cc1ccc2c(c1)[nH]c1c(C)nccc12`: the inhibition in test [1] came out at 23%.

`CCCc1nccc2c1[nH]c1cc(F)ccc12`: the inhibition in test [1] came out at 60%.

For `Fc1ccc(-c2[nH]ccc3c4ccccc4nc2-3)c(F)c1`, the inhibition in [1] came out at 56%.

Regarding `CC(C)(C)c1[nH]ccc2c3ccccc3nc1-2`, the inhibition in test [1] turned out to be 50%.

As for `Cc1nccc2c1[nH]c1cc(F)ccc12`, the IC50 is 30 µM in test [2]; greater than 250 µM in test [3]; greater than 250 µM in [4]; greater than 250 µM in [5]; greater than 250 µM in test [8]; greater than 250 µM in test [6]. Further, the IC50 in [7] came out at 42 µM. The same molecule came in with an inhibition in [1] of 65%.

For `Cc1nccc2c1[nH]c1cc(OCCC3(C)OCC(C)(C)CO3)ccc12`, in [1], the inhibition turned out to be 27%.

Regarding `Clc1ccccc1-c1[nH]ccc2c3ccccc3nc1-2`, the inhibition in [1] was 69%.

The molecule `N#Cc1ccccc1-c1[nH]ccc2c3ccccc3nc1-2` had an inhibition in [1] of 8%.

Take `N#Cc1cccc(-c2nccc3c2[nH]c2ccccc23)c1`: the inhibition in [1] was 31%.

Take `Cc1[nH]ccc2c1[nH]c1cc(=O)ccc12`: in test [1], the inhibition was 69%.

As for `Fc1cccc(-c2nccc3c2[nH]c2ccccc23)c1`, in test [1], the inhibition amounted to 6%.

With `COc1ccc2c(c1)[nH]c1c(C)nccc12` [HARMINE], the IC50 is 35 µM in test [2]; greater than 250 µM in test [3]; greater than 250 µM in [4]; greater than 250 µM in test [5]; greater than 250 µM in test [8]; greater than 250 µM in [6]. Moreover, the inhibition in [1] is 62%.

For the molecule `O=[N+]([O-])c1ccc(Cl)c(-c2[nH]ccc3c4ccccc4nc2-3)c1`, the IC50 in [9] was greater than 1200 µM; in test [2], 22 µM; in test [3], greater than 250 µM; in [5], greater than 250 µM; in test [6], greater than 250 µM; in test [7], 45 µM. Besides, the inhibition in [1] is 70%.

For the molecule `Cc1nccc2c1[nH]c1cccc(F)c12`, the inhibition in test [1] was determined as 55%.
